Test results published in US9388137B2, “Quaternized amines as sodium channel blockers” (Purdue Pharma L.P., priority 2011, dated 2016).

What was measured:
human Nav1.7 = human Nav1.7 (Homo sapiens (Human), UniProt Q15858); assay: FLIPR sodium dye assay for sodium channel blocking activity; type: cell-based; conditions: recombinant Nav1.7/HEK293 cells
hNav1.7 = hNav1.7 (Homo sapiens (Human), UniProt Q15858); assay: Electrophysiology (EP) assay, whole-cell patch clamp; type: cell-based; conditions: hNav1.7 HEK-293 cells
hNav1.7, sequence (Q15858 other isoform, or with tags, fused parts or gaps): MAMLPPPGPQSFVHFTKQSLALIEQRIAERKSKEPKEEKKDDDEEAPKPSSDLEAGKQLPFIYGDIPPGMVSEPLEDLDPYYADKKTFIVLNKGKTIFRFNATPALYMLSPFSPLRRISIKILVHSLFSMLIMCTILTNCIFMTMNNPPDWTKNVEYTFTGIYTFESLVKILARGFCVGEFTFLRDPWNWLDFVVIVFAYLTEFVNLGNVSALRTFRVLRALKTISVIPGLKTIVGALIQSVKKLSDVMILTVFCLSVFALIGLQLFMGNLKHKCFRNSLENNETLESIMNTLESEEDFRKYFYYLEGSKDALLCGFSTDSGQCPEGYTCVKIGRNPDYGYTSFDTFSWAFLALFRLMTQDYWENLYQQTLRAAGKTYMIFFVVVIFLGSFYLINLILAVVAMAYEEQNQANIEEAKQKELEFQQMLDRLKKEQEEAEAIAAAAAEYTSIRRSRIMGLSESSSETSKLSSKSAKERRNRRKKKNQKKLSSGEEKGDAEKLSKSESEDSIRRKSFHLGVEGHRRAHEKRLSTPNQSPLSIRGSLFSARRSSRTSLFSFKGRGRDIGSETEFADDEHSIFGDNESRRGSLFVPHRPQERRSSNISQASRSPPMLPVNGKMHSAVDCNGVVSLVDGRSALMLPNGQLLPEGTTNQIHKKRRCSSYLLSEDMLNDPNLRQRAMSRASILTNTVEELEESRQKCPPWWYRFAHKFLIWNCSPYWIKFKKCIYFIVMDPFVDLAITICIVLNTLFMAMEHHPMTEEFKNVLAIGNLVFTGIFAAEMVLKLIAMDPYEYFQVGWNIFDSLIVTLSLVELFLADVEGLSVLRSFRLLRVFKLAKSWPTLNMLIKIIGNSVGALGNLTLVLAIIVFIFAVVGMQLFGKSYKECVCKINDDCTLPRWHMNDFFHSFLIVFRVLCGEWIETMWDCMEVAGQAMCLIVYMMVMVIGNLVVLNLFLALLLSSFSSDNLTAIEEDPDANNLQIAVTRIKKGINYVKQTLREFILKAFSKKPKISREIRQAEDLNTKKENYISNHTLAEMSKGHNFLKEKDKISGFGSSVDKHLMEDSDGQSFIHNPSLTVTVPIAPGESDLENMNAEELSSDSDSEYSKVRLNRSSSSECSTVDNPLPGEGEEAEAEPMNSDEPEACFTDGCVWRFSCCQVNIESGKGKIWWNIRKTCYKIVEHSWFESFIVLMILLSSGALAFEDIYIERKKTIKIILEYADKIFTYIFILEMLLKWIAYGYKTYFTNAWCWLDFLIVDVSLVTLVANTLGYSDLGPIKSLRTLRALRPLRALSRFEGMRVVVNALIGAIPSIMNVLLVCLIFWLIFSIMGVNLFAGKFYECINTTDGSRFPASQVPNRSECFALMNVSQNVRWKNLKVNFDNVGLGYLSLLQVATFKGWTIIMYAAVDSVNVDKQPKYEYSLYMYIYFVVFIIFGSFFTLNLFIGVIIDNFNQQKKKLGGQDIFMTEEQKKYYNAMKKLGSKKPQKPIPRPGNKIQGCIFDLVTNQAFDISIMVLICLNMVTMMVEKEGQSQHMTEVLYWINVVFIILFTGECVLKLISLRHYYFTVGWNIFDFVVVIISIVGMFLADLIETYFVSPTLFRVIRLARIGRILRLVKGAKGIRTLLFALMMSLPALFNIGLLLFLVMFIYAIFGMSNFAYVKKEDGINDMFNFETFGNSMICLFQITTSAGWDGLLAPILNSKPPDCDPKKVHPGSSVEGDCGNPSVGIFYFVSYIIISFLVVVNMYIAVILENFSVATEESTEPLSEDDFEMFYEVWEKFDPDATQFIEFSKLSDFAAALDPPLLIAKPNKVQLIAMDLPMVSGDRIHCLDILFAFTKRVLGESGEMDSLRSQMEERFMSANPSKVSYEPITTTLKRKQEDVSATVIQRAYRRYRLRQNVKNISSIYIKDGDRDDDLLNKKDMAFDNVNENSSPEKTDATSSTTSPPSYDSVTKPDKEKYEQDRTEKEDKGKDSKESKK

human Nav1.7, sequence (Q15858 other isoform, or with tags, fused parts or gaps): as above

Row | Structure (SMILES) | IC50 (human Nav1.7) | Ki (hNav1.7; affinity for the inactivated state of the channel, read-out: Nav1.7 Activity EP assay Ki) | Kd (hNav1.7; dissociation constant for binding to the resting state of the channel, read-out: Nav1.7 Activity EP assay Kr)
1 | Cc1cc(C(=O)NCC[N+]2(C)CCOCC2)cc(-c2ccc(Oc3ccc(F)cc3)cc2)n1 [Example 2, 4-[2-({2-[4-(4-fluoro-phenoxy)-phenyl]-6-methyl-pyridine-4-carbonyl}-amino)-ethyl]-4-methyl-morpholin-4-ium] | 1.88 ± 0.287 µM | – | –
2 | Cc1cc(C(=O)N2CC[N+](C)(C)CC2)cc(-c2ccc(Oc3ccc(F)cc3)cc2)n1 [Example 7, 4-{2-[4-(4-Fluoro-phenoxy)-phenyl]-6-methyl-pyridine-4-carbonyl}-1,1-dimethyl-piperazin-1-ium] | > 20 µM | – | –
3 | Cc1cc(C(=O)N2CCC([N+]3(C)CCCC3)CC2)cc(-c2ccc(Oc3ccc(F)cc3)cc2)n1 [Example 3, 1-(1-{2-[4-(4-fluoro-phenoxy)-phenyl]-6-methyl-pyridine-4-carbonyl}-piperidin-4-yl)-1-methyl-pyrrolidinium] | > 20 µM | – | –

Next, values leading:

Row | IC50 (human Nav1.7) | Ki (hNav1.7; affinity for the inactivated state of the channel, read-out: Nav1.7 Activity EP assay Ki) | Kd (hNav1.7; dissociation constant for binding to the resting state of the channel, read-out: Nav1.7 Activity EP assay Kr) | Structure (SMILES)
4 | 3.99 ± 0.289 µM | – | – | Cc1cc(C(=O)NCc2ccc([N+](C)(C)C)cc2)cc(-c2ccc(Oc3ccc(F)cc3)cc2)n1 [Example 4, {4-[({2-[4-(4-fluoro-phenoxy)-phenyl]-6-methyl-pyridine-4-carbonyl}-amino)-methyl]-phenyl}-trimethyl-ammonium]
5 | 6.52 ± 0.466 µM | – | – | Cc1cc(C(=O)NCC[N+](C)(C)C)cc(-c2ccc(Oc3ccc(F)cc3)cc2)n1 [Example 6, [2-({2-[4-(4-fluoro-phenoxy)-phenyl]-6-methyl-pyridine-4-carbonyl}-amino)-ethyl]-trimethyl-ammonium]
6 | 2.9 ± 0.375 µM | – | – | Cc1cc(C(=O)NCC[N+]2(C)CCCC2)cc(-c2ccc(Oc3ccc(F)cc3)cc2)n1 [Example 5, 1-[2-({2-[4-(4-fluoro-phenoxy)-phenyl]-6-methyl-pyridine-4-carbonyl}-amino)-ethyl]-1-methyl-pyrrolidinium]
7 | 0.872 ± 0.255 µM | 6.03 ± 0.91 µM | 125 ± 23.4 µM | Cc1cc(C(=O)NCC[N+]2(C)CCCCC2)cc(-c2ccc(Oc3ccc(F)cc3)cc2)n1 [Example 1, 1-[2-({2-[4-(4-fluoro-phenoxy)-phenyl]-6-methyl-pyridine-4-carbonyl}-amino)-ethyl]-1-methyl-piperidinium]
8 | > 20 µM | – | – | Cc1cc(C(=O)N(C)C2CC[N+](C)(C)CC2)cc(-c2ccc(Oc3ccc(F)cc3)cc2)n1 [Example 8, 4-({2-[4-(4-Fluoro-phenoxy)-phenyl]-6-methyl-pyridine-4-carbonyl}-methyl-amino)-1,1-dimethyl-piperidinium]
